Measurements taken from patent US11980596B2 (priority 2017, dated 2024).

Tests used:
[1] = test system: subjects with MDD at imminent risk for suicide; assay: SIBAT clinical global judgment of suicide risk ([…]2001); assay type: in vivo, human
Text: The clinical global judgment of suicide risk (Module 8) summarizes clinician overall judgment of suicide risk as derived from information gathered from the full SIBAT tool. It operates like numerous other CGI-severity scales that have been used in other psychiatric studies. Change in the clinical global judgment of suicide risk is designed to directly identify clinical meaningful changes in suicidal ideation and to permit classification of suicide risk.
The analysis of the change in SIBAT score was based on an ANCOVA model on ranks of change in SIBAT with treatment, antidepressant therapy, and analysis center as factors, and baseline value (unranked) as a covariate. There was a significant difference (two-sided […]) between the two treatment groups when comparing the mean rank of change from baseline at Day 1: 4-hours postdose in favor of esketamine 84 mg See, Table 58. See, FIG. 39. […] This difference was not evident at the Day 25 DB endpoint. See, FIG. 40, which is based on LOCF data and analyzed using Cochran-Mantel-Haenszel test controlling for analysis center and antidepressant therapy.

subjects with TRD [2] = conditions: post dose
Protocol: (§1) The Clinician Administered Dissociative States Scale (CADSS) was measured prior to the start of each dose, at 40 minutes, and 1.5 hours postdose.

patients with TRD = assay: Sedation by MOAA/s in SPRAVATO clinical trials (label); assay type: in vivo, human; conditions: after dosing
Protocol: In clinical trials, 49% to 61% of SPRAVATO-treated patients developed sedation based on the Modified Observer's Alertness/Sedation scale (MOAA/s) [see Adverse Reactions (6.1)], and 0.3% of SPRAVATO-treated patients experienced loss of consciousness (MOAA/s score of 0).
Sedation was evaluated by adverse event reports and using the Modified Observer's Alertness/Sedation scale (MOAA/s). In the MOAA/s scale, 5 means “responds readily to name spoken in normal tone” and 0 means “no response after painful trapezius squeeze.” Any decrease in MOAA/s from pre-dose is considered to indicate presence of sedation, and such a decrease occurred in a higher number of patients on esketamine than placebo during the short-term trials (Table 4).

subjects with TRD [3] = conditions: post dose; remark: listed apart in the source
Protocol: as §1

[4] = test system: subjects with MDD at imminent risk for suicide; assay: MADRS total score, sustained response (Study […]2001); assay type: in vivo, human
Text: Primary efficacy variable/Primary Time point: Change from baseline (Day 1, predose) to Day 1, 4-hours postdose in MADRS total score. The MADRS consists of 10 items that cover all of the core depressive symptoms, with each item scoring from 0 (item is not present or is normal) to 6 (severe or continuous presence of the symptom). A higher score represents a more severe condition.
The primary efficacy endpoint is the change in MADRS total score from baseline to Day 1: 4-hours postdose. MADRS total scores range from 0 to 60. […] As this is a phase 2a proof-of-concept study, statistical significance is based on a two-sided alpha level of 0.20. All p-values presented in this document are two-sided.
Sustained response is defined as at least 50% reduction from baseline in MADRS total score with onset on Day 1: 4 hours postdose that is maintained through the end of the double-blind phase (Day 25). Four subjects in the esketamine 84 mg group and 2 subjects in the placebo group had sustained response throughout the double-blind phase.

[5] = esketamine 84 mg, LOCF, ITT, N = 35
[6] = esketamine 84 mg, LOCF, ITT, N = 35, negative change = improvement
[7] = esketamine 84 mg, predose Day 1, ITT, N = 35
[8] = esketamine 84 mg minus placebo, ANCOVA LOCF

## CN[C@]1(c2ccccc2Cl)CCCCC1=O [esketamine, (S)-2-(2-chlorophenyl)-2-(methylamino)cyclohexanone]
[1]; 84 mg, Day 1: 4-hours postdose and Day 2
  SIBAT Clinical Global Judgment of Suicide Risk: change vs placebo: statistically superior
[1]; esketamine 84 mg, LOCF, ITT, N = 33
  SIBAT Clinical Global Judgment of Suicide Risk, Day 1 (DB): 4H, Median (Range): 5.0 (0; 6)
[1]; esketamine 84 mg, LOCF, ITT, N = 33, negative change = improvement
  SIBAT Clinical Global Judgment of Suicide Risk, Change from Baseline to Day 1 (DB): 4H, Median (Range): 0.0 (−6; 1)
[1]; [5]
  SIBAT Clinical Global Judgment of Suicide Risk, Day 2 (DB), Median (Range): 5.0 (0; 6)
[1]; [6]
  SIBAT Clinical Global Judgment of Suicide Risk, Change from Baseline to Day 2 (DB), Median (Range): −1.0 (−6; 1)
[1]; [7]
  SIBAT Clinical Global Judgment of Suicide Risk, Baseline (DB), Median (Range): 6.0 (5; 6)
Subjects with TRD [2]
  Dissociative and perceptual change symptoms (CADSS) resolved by: ≤ 1.5 h
Patients with TRD
  Sedative effects typically resolved by: ≤ 1.5 h
Subjects with TRD [3]
  Dissociative/perceptual change symptoms (CADSS) resolved by: ≤ 1.5 h
[4]; 84 mg, Day 1, 4-hours postdose, ANCOVA
  MADRS: least-square mean difference from placebo: −5.3 (2.10)
[4]; [8]
  MADRS total score, change to Day 1 (DB): 4 H, Diff. of LS Means (SE): −5.3 (2.10)
  MADRS total score, change to Day 2 (DB), Diff. of LS Means (SE): −7.2 (2.85)
  MADRS total score, change to End Point (DB), Diff. of LS Means (SE): −4.5 (3.14)
[4]; [5]
  MADRS total score, Day 1 (DB): 4 H, Median (Range): 23.0 (7; 48)
  MADRS total score, Day 2 (DB), Median (Range): 18.0 (3; 42)
  MADRS total score, End Point (DB), Median (Range): 8.0 (0; 44)
[4]; [6]
  MADRS total score, Change from Baseline to Day 1 (DB): 4 H, Median (Range): −14.0 (−32; 1)
  MADRS total score, Change from Baseline to Day 2 (DB), Median (Range): −19.0 (−41; 1)
  MADRS total score, Change from Baseline to End Point (DB), Median (Range): −25.0 (−46; 13)
[4]; [7]
  MADRS total score, Baseline (DB), Median (Range): 38.0 (27; 49)
